The source of these data is BindingDB's records for doi:10.1021/bi00421a012 (Pennsylvania State University, 1988).

SMILES strings stand for the structures. pKd: −log10 of the molar value.

This assay addresses T1, Carbamoyl-phosphate synthase small chain (Escherichia coli (strain K12), UniProt P0A6F1).
T1 sequence (P0A6F1 whole entry): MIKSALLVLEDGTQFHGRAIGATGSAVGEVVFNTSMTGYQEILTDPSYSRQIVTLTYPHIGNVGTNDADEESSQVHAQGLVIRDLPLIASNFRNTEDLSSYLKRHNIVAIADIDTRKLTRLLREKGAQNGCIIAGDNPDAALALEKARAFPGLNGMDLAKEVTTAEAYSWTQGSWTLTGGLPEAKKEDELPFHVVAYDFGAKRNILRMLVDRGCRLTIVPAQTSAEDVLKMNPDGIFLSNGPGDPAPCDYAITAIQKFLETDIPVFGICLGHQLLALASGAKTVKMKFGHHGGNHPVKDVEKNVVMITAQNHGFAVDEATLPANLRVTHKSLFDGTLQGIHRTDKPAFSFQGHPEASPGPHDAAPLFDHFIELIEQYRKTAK
To be noted: pH 7.5; 25 °C.

The compound `O=P(O)(O)OC[C@H]1O[C@@H](n2cnc3c2ncn2ccnc32)[C@H](O)[C@@H]1O` [[(2R,3S,4R,5R)-3,4-dihydroxy-5-imidazo[2,1-f]purin-3-yloxolan-2-yl]methyl dihydrogen phosphate] gave a negative logarithm of the Kd (pKd) of 4.48.

In general, pKd refers to −log10 of the Kd, conventionally taken in molar units.
